This assay relates to Fusarium nivale. Description: Fusarium nivale test (wheat)/seed treatment. The format is in vivo. The settings on record: seed dressing of infected wheat seed, evaluated three weeks after sowing, 0% = control, 100% = no infection. The procedure:
Fusarium nivale Test (Wheat)/Seed Treatment The active compounds or the active compound combination are/is applied using commercially available liquid seed dressings of the individual active compounds or the active compound combination. For seed dressing, the infected seed is shaken with the seed dressing in question in a closed plastic container for 3 minutes. For each test, in two seed trays in each case 100 wheat corns are sown at a depth of 3 cm in sand and covered with a layer of fine particulate clay. The seed trays are then placed in a greenhouse at a temperature of about 10° C. and a relative atmospheric humidity of 95% and exposed to light for 15 hours per day. Three weeks after sowing, the plants are evaluated for symptoms. The efficacy is expressed in %. 0% means an efficacy which corresponds to that of the control, whereas an efficacy of 100% means that no infection is observed.

Turning to `OC(Cc1ccccc1Cl)(Cn1nc[nH]c1=S)C1(Cl)CC1` (centres unmarked) [prothioconazole, 2-[2-(1-chlorocyclopropyl)-3-(2-chlorophenyl)-2-hydroxypropyl]-2,4-dihydro[1,2,4]-triazole-3-thione], the Efficacy in % (5 g active compound per 100 kg of seed) is 57%.
As to `CC(C)(C)C(O)(CCc1ccc(Cl)cc1)Cn1cncn1` (centres unmarked) [tebuconazole], the Efficacy in % (3 g active compound per 100 kg of seed) is recorded as 11%.

Values taken from patent publication US20070054804A1, “Use of fungicides for disinfecting cereal seed” (BAYER CROPSCIENCE AKTIENGESELLSCHAFT, priority 2003, published 2007).
